In patent US20250197372A1 (priority 2020, published 2025):

Legend:
Format in all cases: biochemical
[1] = target: T1, recombinant human GBA (beta-glucocerebrosidase) (Homo sapiens, UniProt P04062); assay: Beta-glucocerebrosidase (GBA, glucosylceramidase) assay (4-methylumbelliferyl-beta-D-pyranoside substrate, fluorescence)
T1 sequence (P04062 40-536): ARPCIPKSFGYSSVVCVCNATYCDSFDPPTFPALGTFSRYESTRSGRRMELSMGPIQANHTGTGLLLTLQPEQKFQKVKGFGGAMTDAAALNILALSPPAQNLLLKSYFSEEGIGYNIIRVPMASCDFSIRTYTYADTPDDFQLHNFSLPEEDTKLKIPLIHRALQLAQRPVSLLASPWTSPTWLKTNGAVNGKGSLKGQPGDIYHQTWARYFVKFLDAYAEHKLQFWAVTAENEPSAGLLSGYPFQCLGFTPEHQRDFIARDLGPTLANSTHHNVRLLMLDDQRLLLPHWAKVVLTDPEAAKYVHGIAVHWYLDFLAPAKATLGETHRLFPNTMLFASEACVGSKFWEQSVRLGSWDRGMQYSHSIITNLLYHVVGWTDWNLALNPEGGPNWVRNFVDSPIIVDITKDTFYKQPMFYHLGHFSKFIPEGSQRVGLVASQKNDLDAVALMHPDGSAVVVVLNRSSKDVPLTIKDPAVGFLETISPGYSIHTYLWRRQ
In short: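 Recombinant human GBA preincubated with compound dilutions 60 min at 37 °C, then 4-methylumbelliferyl-beta-D-pyranoside added for 60 min at 37 °C. Stopped at pH 10 (glycine/NaOH); fluorescence ex 365/em 440 nm. IC50 from 4-PL fit of inhibition relative to untreated enzyme.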

[2] = target: rat sucrase (partially purified alpha-glucosidase from intestinal rat powder) (Rattus norvegicus, UniProt P23739); assay: Intestinal alpha-glucosidase assay, sucrose substrate (Glucose GO Kit)
In short: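 Rat intestinal enzyme prep + test cpd dilutions, 60 min 37 °C; add maltose (maltase) or sucrose (sucrase), 30 min 37 °C; stop 90 °C 5 min. Glucose readout (glucose oxidase kit). IC50 from 4-PL fit of % inhibition vs conc.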

[3] = target: T2, recombinant alpha-glucosidase II (murine full-length glucosidase II, alpha and beta subunits, Glu 2) (Mus musculus, UniProt Q8BHN3); assay: Alpha-glucosidase II assay (4-methylumbelliferyl-alpha-D-pyranoside substrate, fluorescence); conditions: Glucosidase 2; read-out: Glu2 IC50
T2 construct: made in house; host or cells: HEK-293T cells transduced with BacMam viruses (75% alpha, 25% beta); protein harvested from culture supernatant

[4] = target: recombinant human GAA (acid alpha-glucosidase) (Homo sapiens, UniProt P10253); assay: Acid alpha-glucosidase (GAA) assay (4-methylumbelliferyl-alpha-D-pyranoside substrate, fluorescence)
In short: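 Recombinant human enzyme preincubated 60 min at 37 °C with compound dilutions, then 4-methylumbelliferyl-alpha-D-pyranoside substrate added for 20 min at 37 °C. Stopped with glycine/NaOH pH 10; methylumbelliferone fluorescence (ex 365, em 440 nm) versus untreated enzyme; IC50 by 4-PL fit.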

T2 sequence (O08795 15-521): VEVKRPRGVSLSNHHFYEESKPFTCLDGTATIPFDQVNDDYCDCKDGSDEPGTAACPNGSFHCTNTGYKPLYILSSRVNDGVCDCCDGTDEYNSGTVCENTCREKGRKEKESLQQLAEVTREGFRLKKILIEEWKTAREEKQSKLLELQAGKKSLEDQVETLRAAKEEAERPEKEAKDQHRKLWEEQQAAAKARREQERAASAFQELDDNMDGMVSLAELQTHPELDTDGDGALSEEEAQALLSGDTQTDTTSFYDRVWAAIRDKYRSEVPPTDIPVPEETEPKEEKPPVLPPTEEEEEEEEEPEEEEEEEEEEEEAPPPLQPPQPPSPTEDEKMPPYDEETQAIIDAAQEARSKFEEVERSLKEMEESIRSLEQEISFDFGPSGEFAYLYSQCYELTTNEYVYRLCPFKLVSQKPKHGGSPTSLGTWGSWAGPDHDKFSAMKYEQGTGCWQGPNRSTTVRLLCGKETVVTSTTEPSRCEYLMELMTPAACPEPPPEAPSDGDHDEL
T2 sequence (Q8BHN3 33-944): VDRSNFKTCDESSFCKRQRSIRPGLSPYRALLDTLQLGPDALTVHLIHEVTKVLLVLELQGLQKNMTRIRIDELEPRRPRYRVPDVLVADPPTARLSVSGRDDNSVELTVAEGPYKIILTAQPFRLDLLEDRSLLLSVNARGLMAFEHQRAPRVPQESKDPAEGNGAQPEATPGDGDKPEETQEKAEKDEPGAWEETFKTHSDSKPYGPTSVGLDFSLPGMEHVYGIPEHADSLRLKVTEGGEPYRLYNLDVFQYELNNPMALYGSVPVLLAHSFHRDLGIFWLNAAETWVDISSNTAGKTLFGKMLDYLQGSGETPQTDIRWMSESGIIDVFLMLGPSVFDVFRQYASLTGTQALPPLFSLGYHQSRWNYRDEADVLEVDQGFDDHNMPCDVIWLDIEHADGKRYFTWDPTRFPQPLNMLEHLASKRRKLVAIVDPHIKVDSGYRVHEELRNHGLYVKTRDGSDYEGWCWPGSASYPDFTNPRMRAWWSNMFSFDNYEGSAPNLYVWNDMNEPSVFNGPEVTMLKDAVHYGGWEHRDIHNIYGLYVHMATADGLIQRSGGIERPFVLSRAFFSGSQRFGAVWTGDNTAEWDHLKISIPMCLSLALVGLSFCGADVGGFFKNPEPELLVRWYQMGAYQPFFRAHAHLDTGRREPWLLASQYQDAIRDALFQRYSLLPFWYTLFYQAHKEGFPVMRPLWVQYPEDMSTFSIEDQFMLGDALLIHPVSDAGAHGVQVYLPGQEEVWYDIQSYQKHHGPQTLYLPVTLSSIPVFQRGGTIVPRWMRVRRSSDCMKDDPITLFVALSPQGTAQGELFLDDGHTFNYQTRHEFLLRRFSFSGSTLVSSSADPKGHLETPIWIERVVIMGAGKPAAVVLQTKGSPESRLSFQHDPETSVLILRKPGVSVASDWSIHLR
Sequence of rat sucrase (partially purified alpha-glucosidase from intestinal rat powder) (P23739 whole entry): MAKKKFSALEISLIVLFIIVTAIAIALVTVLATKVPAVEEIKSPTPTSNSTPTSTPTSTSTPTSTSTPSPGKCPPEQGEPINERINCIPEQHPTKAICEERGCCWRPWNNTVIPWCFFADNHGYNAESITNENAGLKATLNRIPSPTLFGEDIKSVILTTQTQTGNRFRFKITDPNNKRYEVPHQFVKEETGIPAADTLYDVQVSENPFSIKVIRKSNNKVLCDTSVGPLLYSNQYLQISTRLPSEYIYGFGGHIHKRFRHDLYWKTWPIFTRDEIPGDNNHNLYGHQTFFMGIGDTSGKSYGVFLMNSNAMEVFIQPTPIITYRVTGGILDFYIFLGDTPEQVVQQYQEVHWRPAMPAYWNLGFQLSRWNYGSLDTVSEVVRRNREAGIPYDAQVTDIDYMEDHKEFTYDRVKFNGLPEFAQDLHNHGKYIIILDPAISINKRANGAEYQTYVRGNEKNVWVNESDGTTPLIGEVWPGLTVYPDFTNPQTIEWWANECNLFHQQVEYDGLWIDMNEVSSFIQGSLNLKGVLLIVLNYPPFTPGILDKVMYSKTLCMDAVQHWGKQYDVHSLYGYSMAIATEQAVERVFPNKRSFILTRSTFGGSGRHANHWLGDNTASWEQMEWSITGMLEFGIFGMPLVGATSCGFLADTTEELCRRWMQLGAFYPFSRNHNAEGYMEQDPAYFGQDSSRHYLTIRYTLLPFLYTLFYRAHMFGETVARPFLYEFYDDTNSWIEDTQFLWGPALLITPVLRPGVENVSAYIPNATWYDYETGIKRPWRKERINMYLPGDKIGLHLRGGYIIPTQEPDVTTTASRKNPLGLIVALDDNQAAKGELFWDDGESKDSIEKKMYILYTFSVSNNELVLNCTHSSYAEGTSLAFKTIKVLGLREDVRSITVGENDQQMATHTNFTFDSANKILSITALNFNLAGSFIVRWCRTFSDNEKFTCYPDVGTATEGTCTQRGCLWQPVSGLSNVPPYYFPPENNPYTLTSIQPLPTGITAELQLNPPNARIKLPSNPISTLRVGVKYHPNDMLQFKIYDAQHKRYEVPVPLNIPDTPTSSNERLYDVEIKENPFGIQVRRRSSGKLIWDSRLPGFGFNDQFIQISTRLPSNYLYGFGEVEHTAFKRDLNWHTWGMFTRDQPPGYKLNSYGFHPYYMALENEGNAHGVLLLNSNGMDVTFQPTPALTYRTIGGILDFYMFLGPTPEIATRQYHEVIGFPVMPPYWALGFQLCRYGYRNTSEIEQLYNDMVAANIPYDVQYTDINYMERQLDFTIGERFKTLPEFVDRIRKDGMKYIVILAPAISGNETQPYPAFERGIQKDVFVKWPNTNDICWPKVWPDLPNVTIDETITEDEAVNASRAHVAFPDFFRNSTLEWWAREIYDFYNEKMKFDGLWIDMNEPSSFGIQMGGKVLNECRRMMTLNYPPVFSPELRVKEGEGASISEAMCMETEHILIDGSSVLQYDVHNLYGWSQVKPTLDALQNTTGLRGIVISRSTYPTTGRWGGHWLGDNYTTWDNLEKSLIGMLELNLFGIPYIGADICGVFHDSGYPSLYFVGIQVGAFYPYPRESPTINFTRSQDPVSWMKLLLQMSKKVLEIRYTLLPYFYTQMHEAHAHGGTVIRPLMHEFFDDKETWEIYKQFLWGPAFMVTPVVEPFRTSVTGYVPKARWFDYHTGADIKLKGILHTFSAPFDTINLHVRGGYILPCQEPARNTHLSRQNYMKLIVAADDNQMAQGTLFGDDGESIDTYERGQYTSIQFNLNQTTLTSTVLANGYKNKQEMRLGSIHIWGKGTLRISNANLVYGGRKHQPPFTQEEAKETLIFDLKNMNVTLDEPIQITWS

SMILES | IC50 [1] [nM] | IC50 [2] [nM] | IC50 [3] [nM] | IC50 [4] [nM]
N#Cc1cc(NCc2cccc(CN3C[C@H](O)[C@@H](O)[C@H](O)[C@H]3CO)c2)cc(-c2ccc[nH]2)c1 [Compound 1045, 3-(1H-pyrrol-2-yl)-5-{[(3-{[(2R,3R,4R,5S)-3,4,5-trihydroxy-2-(hydroxymethyl)piperidin-1-yl]methyl}phenyl)methyl]amino}benzonitrile] | 60700 | < 1 | 7700 | 1960
COc1cc(Br)cc(NCCn2cc(CCN3C[C@H](O)[C@@H](O)[C@H](O)[C@H]3CO)c3ccccc32)c1 [Compound 1075, (2R,3R,4R,5S)-1-[2-(1-{2-[(3-bromo-5-methoxyphenyl)amino]ethyl}-1H-indol-3-yl)ethyl]-2-(hydroxymethyl)piperidine-3,4,5-triol] | 2520 | 722 | 150 | 3730
Cc1cc(CN2CCOCC2)cc(NCc2ccc(CN3C[C@H](O)[C@@H](O)[C@H](O)[C@H]3CO)cc2)c1 [Compound 1005, (2R,3R,4R,5S)-2-(hydroxymethyl)-1-({4-[({3-methyl-5-[(morpholin-4-yl)methyl]phenyl}amino)methyl]phenyl}methyl)piperidine-3,4,5-triol] | > 100000 | 661 | 1580 | 802
[N-]=[N+]=Nc1ccc(NCCC23CC(CCN4C[C@H](O)[C@@H](O)[C@H](O)[C@H]4CO)(C2)C3)c([N+](=O)[O-])c1 [Compound 1103, (2R,3R,4R,5S)-1-[2-(3-{2-[(4-azido-2-nitrophenyl)amino]ethyl}bicyclo[1.1.1]pentan-1-yl)ethyl]-2-(hydroxymethyl)piperidine-3,4,5-triol] | 11900 | 569 | 5 | 2660
COC(=O)c1cc(Cl)cc(NCCc2ccc(CCN3C[C@H](O)[C@@H](O)[C@H](O)[C@H]3CO)cc2)c1 [Compound 1116, methyl 3-chloro-5-{[2-(4-{2-[(2R,3R,4R,5S)-3,4,5-trihydroxy-2-(hydroxymethyl)piperidin-1-yl]ethyl}phenyl)ethyl]amino}benzoate] | 904 | 1230 | < 1 | 428
O=[N+]([O-])c1cc(-c2ncccn2)ccc1NCCc1ccc(CCN2C[C@H](O)[C@@H](O)[C@H](O)[C@H]2CO)cc1 [Compound 1111, (2R,3R,4R,5S)-2-(hydroxymethyl)-1-{2-[4-(2-{[2-nitro-4-(pyrimidin-2-yl)phenyl]amino}ethyl)phenyl]ethyl}piperidine-3,4,5-triol] | 1790 | 773 | 10 | 20
O=[N+]([O-])c1cc(-c2ccc[nH]2)ccc1NCc1ccc(CN2C[C@H](O)[C@@H](O)[C@H](O)[C@H]2CO)cc1 [Compound 1100, (2R,3R,4R,5S)-2-(hydroxymethyl)-1-{[4-({[2-nitro-4-(1H-pyrrol-2-yl)phenyl]amino}methyl)phenyl]methyl}piperidine-3,4,5-triol] | 41700 | 2 | < 1 | 161
O=C(O)c1cc(NCCCCCCN2C[C@H](O)[C@@H](O)[C@H](O)[C@H]2CO)cc(-c2ncccn2)c1 [Compound 1118, 3-(pyrimidin-2-yl)-5-({6-[(2R,3R,4R,5S)-3,4,5-trihydroxy-2-(hydroxymethyl)piperidin-1-yl]hexyl}amino) benzoic acid] | 2430 | 58 | 5 | 27
OC[C@@H]1[C@@H](O)[C@H](O)[C@@H](O)CN1Cc1ccc(CNc2ccc(CN3CCCO3)cc2)cc1 [Compound 1092, (2R,3R,4R,5S)-2-(hydroxymethyl)-1-({4-[({4-[(1,2-oxazolidin-2-yl)methyl]phenyl}amino)methyl]phenyl}methyl)piperidine-3,4,5-triol] | 121000 | 48 | 1780 | 786
OC[C@@H]1[C@@H](O)[C@H](O)[C@@H](O)CN1Cc1cccc(CNc2ccc(-c3ncccn3)cc2)c1 [Compound 1084, (2R,3R,4R,5S)-2-(hydroxymethyl)-1-{[3-({[4-(pyrimidin-2-yl)phenyl]amino}methyl)phenyl]methyl}piperidine-3,4,5-triol] | > 100000 | 44 | 26600 | 2350
O=S(=O)(Nc1cc(NCCCCCCN2C[C@H](O)[C@@H](O)[C@H](O)[C@H]2CO)cc(-c2ncccn2)c1)C1CC1 [Compound 1114, N-[3-(pyrimidin-2-yl)-5-({6-[(2R,3R,4R,5S)-3,4,5-trihydroxy-2-(hydroxymethyl)piperidin-1-yl]hexyl}amino)phenyl]cyclopropanesulfonamide] | 5140 | 52 | 3 | 16
O=[N+]([O-])c1cc(N2CCOCC2)ccc1NCc1ccc(CN2C[C@@H](O)[C@H](O)[C@@H](O)[C@@H]2CO)cc1 (stereo in doubt) [Compound 1069, (2S,3S,4S,5R)-2-(hydroxymethyl)-1-{[4-({[4-(morpholin-4-yl)-2-nitrophenyl]amino}methyl)phenyl]methyl}piperidine-3,4,5-triol] | 3090 | 8 | 4 | 68
N#Cc1cc(NCc2ccc(CN3C[C@H](O)[C@@H](O)[C@H](O)[C@H]3CO)cc2)cc(-c2ncccn2)c1 [Compound 1065, 3-(pyrimidin-2-yl)-5-{[(4-{[(2R,3R,4R,5S)-3,4,5-trihydroxy-2-(hydroxymethyl)piperidin-1-yl]methyl}phenyl)methyl]amino}-benzonitrile] | 32100 | 37 | 6 | 90
OC[C@@H]1[C@@H](O)[C@H](O)[C@@H](O)CN1Cc1cccc(CNc2ccc(N3CCOCC3)cc2)c1 [Compound 1081, (2R,3R,4R,5S)-2-(hydroxymethyl)-1-{[3-({[4-(morpholin-4-yl)phenyl]amino}methyl)phenyl]methyl}piperidine-3,4,5-triol] | > 100000 | 161 | 70400 | 1270
O=[N+]([O-])c1cc(-c2ncccn2)ccc1NCc1ccc(CN2C[C@H](O)[C@@H](O)[C@H](O)[C@H]2CO)cc1 [Compound 1102, (2R,3R,4R,5S)-2-(hydroxymethyl)-1-{[4-({[2-nitro-4-(pyrimidin-2-yl)phenyl]amino}methyl)phenyl]methyl}piperidine-3,4,5-triol] | 28700 | < 1 | 64 | 28
[N-]=[N+]=Nc1ccc(NCc2ccc(Cc3ccc(CN4C[C@H](O)[C@@H](O)[C@H](O)[C@H]4CO)cc3)cc2)c([N+](=O)[O-])c1 [Compound 1105, (2R,3R,4R,5S)-1-({4-[(4-{[(4-azido-2-nitrophenyl)amino]methyl}phenyl)methyl]phenyl}methyl)-2-(hydroxymethyl)piperidine-3,4,5-triol] | 9090 | 12 | 151 | 60
O=[N+]([O-])c1cc(-c2ccc[nH]2)ccc1NCc1cccc(CN2C[C@H](O)[C@@H](O)[C@H](O)[C@H]2CO)c1 [Compound 1088, (2R,3R,4R,5S)-2-(hydroxymethyl)-1-{[3-({[2-nitro-4-(1H-pyrrol-2-yl)phenyl]amino}methyl)phenyl]methyl}piperidine-3,4,5-triol] | 68400 | < 1 | 6360 | 1950
[N-]=[N+]=Nc1ccc(NCCc2cc(CCN3C[C@H](O)[C@@H](O)[C@H](O)[C@H]3CO)cc(C3CCCCC3)c2)c([N+](=O)[O-])c1 [Compound 1115, (2R,3R,4R,5S)-1-[2-(3-{2-[(4-azido-2-nitrophenyl)amino]ethyl}-5-cyclohexylphenyl)ethyl]-2-(hydroxymethyl)piperidine-3,4,5-triol] | 407 | 10500 | 1080 | 5490
O=C(O)c1cc(Cl)cc(NCCc2ccc(CCN3C[C@H](O)[C@@H](O)[C@H](O)[C@H]3CO)cc2)c1 [Compound 1117, 3-chloro-5-{[2-(4-{2-[(2R,3R,4R,5S)-3,4,5-trihydroxy-2-(hydroxymethyl)piperidin-1-yl]ethyl}phenyl)ethyl]amino}benzoic acid] | 18100 | 483 | 139 | 498
